Assay results taken from the NIST ThermoML archive (doi:10.1016/j.fluid.2007.10.004).
Numbers after ± are expanded uncertainties.

Settings: Capillary rise

## CCCCn1cc[n+](C)c1.[Cl-] [1-butyl-3-methylimidazolium chloride]
298 K
  surface tension liquid-gas: 48.2 ± 1.4 mN/m
303 K
  surface tension liquid-gas: 47.8 ± 1.3 mN/m
308 K
  surface tension liquid-gas: 47.5 ± 1.3 mN/m
313 K
  surface tension liquid-gas: 47.2 ± 1.3 mN/m
318 K
  surface tension liquid-gas: 46.9 ± 1.3 mN/m
323 K
  surface tension liquid-gas: 46.6 ± 1.3 mN/m
328 K
  surface tension liquid-gas: 46.3 ± 1.3 mN/m
333 K
  surface tension liquid-gas: 46 ± 1.3 mN/m
338 K
  surface tension liquid-gas: 45.6 ± 1.3 mN/m
343 K
  surface tension liquid-gas: 45.3 ± 1.3 mN/m
348 K
  surface tension liquid-gas: 45 ± 1.3 mN/m
353 K
  surface tension liquid-gas: 44.7 ± 1.3 mN/m
358 K
  surface tension liquid-gas: 44.4 ± 1.3 mN/m
363 K
  surface tension liquid-gas: 43.9 ± 1.3 mN/m
368 K
  surface tension liquid-gas: 43.6 ± 1.3 mN/m
373 K
  surface tension liquid-gas: 43.2 ± 1.2 mN/m
378 K
  surface tension liquid-gas: 42.9 ± 1.2 mN/m
383 K
  surface tension liquid-gas: 42.5 ± 1.2 mN/m
388 K
  surface tension liquid-gas: 42.2 ± 1.2 mN/m
393 K
  surface tension liquid-gas: 41.8 ± 1.2 mN/m

## CCCCn1cc[n+](C)c1.F[P-](F)(F)(F)(F)F [1-butyl-3-methylimidazolium hexafluorophosphate]
298 K
  surface tension liquid-gas: 47.5 ± 1.3 mN/m
303 K
  surface tension liquid-gas: 47.2 ± 1.3 mN/m
308 K
  surface tension liquid-gas: 46.9 ± 1.3 mN/m
313 K
  surface tension liquid-gas: 46.5 ± 1.3 mN/m
318 K
  surface tension liquid-gas: 46 ± 1.3 mN/m
323 K
  surface tension liquid-gas: 45.6 ± 1.3 mN/m
328 K
  surface tension liquid-gas: 45.3 ± 1.3 mN/m
333 K
  surface tension liquid-gas: 44.9 ± 1.3 mN/m
338 K
  surface tension liquid-gas: 44.6 ± 1.3 mN/m
343 K
  surface tension liquid-gas: 44.3 ± 1.3 mN/m
348 K
  surface tension liquid-gas: 43.8 ± 1.3 mN/m
353 K
  surface tension liquid-gas: 43.5 ± 1.3 mN/m
358 K
  surface tension liquid-gas: 43.1 ± 1.2 mN/m
363 K
  surface tension liquid-gas: 42.8 ± 1.2 mN/m
368 K
  surface tension liquid-gas: 42.4 ± 1.2 mN/m
373 K
  surface tension liquid-gas: 42.1 ± 1.2 mN/m
378 K
  surface tension liquid-gas: 41.7 ± 1.2 mN/m
383 K
  surface tension liquid-gas: 41.3 ± 1.2 mN/m
388 K
  surface tension liquid-gas: 41.1 ± 1.2 mN/m
393 K
  surface tension liquid-gas: 40.8 ± 1.2 mN/m

## CCCCn1cc[n+](C)c1.[I-] [1-butyl-3-methylimidazolium iodide]
298 K
  surface tension liquid-gas: 53.3 ± 1.5 mN/m
303 K
  surface tension liquid-gas: 52.9 ± 1.5 mN/m
308 K
  surface tension liquid-gas: 52.5 ± 1.5 mN/m
313 K
  surface tension liquid-gas: 52.1 ± 1.5 mN/m
318 K
  surface tension liquid-gas: 51.5 ± 1.4 mN/m
323 K
  surface tension liquid-gas: 51.1 ± 1.4 mN/m
328 K
  surface tension liquid-gas: 50.7 ± 1.4 mN/m
333 K
  surface tension liquid-gas: 50.3 ± 1.4 mN/m
338 K
  surface tension liquid-gas: 49.9 ± 1.4 mN/m
343 K
  surface tension liquid-gas: 49.4 ± 1.4 mN/m
348 K
  surface tension liquid-gas: 49 ± 1.4 mN/m
353 K
  surface tension liquid-gas: 48.6 ± 1.4 mN/m
358 K
  surface tension liquid-gas: 48.2 ± 1.4 mN/m
363 K
  surface tension liquid-gas: 47.8 ± 1.4 mN/m
368 K
  surface tension liquid-gas: 47.4 ± 1.3 mN/m
373 K
  surface tension liquid-gas: 47.1 ± 1.3 mN/m
378 K
  surface tension liquid-gas: 46.7 ± 1.3 mN/m
383 K
  surface tension liquid-gas: 46.3 ± 1.3 mN/m
388 K
  surface tension liquid-gas: 46 ± 1.3 mN/m
393 K
  surface tension liquid-gas: 45.6 ± 1.3 mN/m

## CCCCn1cc[n+](C)c1.F[B-](F)(F)F [1-butyl-3-methylimidazolium tetrafluoroborate]
298 K
  surface tension liquid-gas: 43.6 ± 1.3 mN/m
303 K
  surface tension liquid-gas: 43.3 ± 1.2 mN/m
308 K
  surface tension liquid-gas: 43 ± 1.2 mN/m
313 K
  surface tension liquid-gas: 42.7 ± 1.2 mN/m
318 K
  surface tension liquid-gas: 42.3 ± 1.2 mN/m
323 K
  surface tension liquid-gas: 42 ± 1.2 mN/m
328 K
  surface tension liquid-gas: 41.8 ± 1.2 mN/m
333 K
  surface tension liquid-gas: 41.5 ± 1.2 mN/m
338 K
  surface tension liquid-gas: 41.2 ± 1.2 mN/m
343 K
  surface tension liquid-gas: 40.9 ± 1.2 mN/m
348 K
  surface tension liquid-gas: 40.7 ± 1.2 mN/m
353 K
  surface tension liquid-gas: 40.4 ± 1.2 mN/m
358 K
  surface tension liquid-gas: 40.2 ± 1.2 mN/m
363 K
  surface tension liquid-gas: 39.8 ± 1.2 mN/m
368 K
  surface tension liquid-gas: 39.5 ± 1.2 mN/m
373 K
  surface tension liquid-gas: 39.2 ± 1.2 mN/m
378 K
  surface tension liquid-gas: 39 ± 1.2 mN/m
383 K
  surface tension liquid-gas: 38.8 ± 1.1 mN/m
388 K
  surface tension liquid-gas: 38.5 ± 1.1 mN/m
393 K
  surface tension liquid-gas: 38.2 ± 1.1 mN/m

## CCCCCCn1cc[n+](C)c1.[Cl-] [1-hexyl-3-methylimidazolium chloride]
298 K
  surface tension liquid-gas: 41.8 ± 1.2 mN/m
303 K
  surface tension liquid-gas: 41.5 ± 1.2 mN/m
308 K
  surface tension liquid-gas: 41.2 ± 1.2 mN/m
313 K
  surface tension liquid-gas: 40.8 ± 1.2 mN/m
318 K
  surface tension liquid-gas: 40.5 ± 1.2 mN/m
323 K
  surface tension liquid-gas: 40.2 ± 1.2 mN/m
328 K
  surface tension liquid-gas: 40 ± 1.2 mN/m
333 K
  surface tension liquid-gas: 39.8 ± 1.2 mN/m
338 K
  surface tension liquid-gas: 39.4 ± 1.2 mN/m
343 K
  surface tension liquid-gas: 39.1 ± 1.2 mN/m
348 K
  surface tension liquid-gas: 38.8 ± 1.2 mN/m
353 K
  surface tension liquid-gas: 38.5 ± 1.1 mN/m
358 K
  surface tension liquid-gas: 38.3 ± 1.1 mN/m
363 K
  surface tension liquid-gas: 37.9 ± 1.1 mN/m
368 K
  surface tension liquid-gas: 37.7 ± 1.1 mN/m
373 K
  surface tension liquid-gas: 37.4 ± 1.1 mN/m
378 K
  surface tension liquid-gas: 37.1 ± 1.1 mN/m
383 K
  surface tension liquid-gas: 36.8 ± 1.1 mN/m
388 K
  surface tension liquid-gas: 36.5 ± 1.1 mN/m
393 K
  surface tension liquid-gas: 36.2 ± 1.1 mN/m

## CCCCCCn1cc[n+](C)c1.F[P-](F)(F)(F)(F)F [1-hexyl-3-methylimidazolium hexafluorophosphate]
298 K
  surface tension liquid-gas: 43.4 ± 1.3 mN/m
303 K
  surface tension liquid-gas: 43 ± 1.2 mN/m
308 K
  surface tension liquid-gas: 42.6 ± 1.2 mN/m
313 K
  surface tension liquid-gas: 42.3 ± 1.2 mN/m
318 K
  surface tension liquid-gas: 41.9 ± 1.2 mN/m
323 K
  surface tension liquid-gas: 41.5 ± 1.2 mN/m
328 K
  surface tension liquid-gas: 41.1 ± 1.2 mN/m
333 K
  surface tension liquid-gas: 40.8 ± 1.2 mN/m
338 K
  surface tension liquid-gas: 40.5 ± 1.2 mN/m
343 K
  surface tension liquid-gas: 40.2 ± 1.2 mN/m
348 K
  surface tension liquid-gas: 39.8 ± 1.2 mN/m
353 K
  surface tension liquid-gas: 39.5 ± 1.2 mN/m
358 K
  surface tension liquid-gas: 39.1 ± 1.2 mN/m
363 K
  surface tension liquid-gas: 38.8 ± 1.2 mN/m

## CCCCCCn1cc[n+](C)c1.[I-] [1-hexyl-3-methylimidazolium iodide]
298 K
  surface tension liquid-gas: 43.5 ± 1.3 mN/m
303 K
  surface tension liquid-gas: 43.1 ± 1.2 mN/m
308 K
  surface tension liquid-gas: 42.7 ± 1.2 mN/m
313 K
  surface tension liquid-gas: 42.3 ± 1.2 mN/m
318 K
  surface tension liquid-gas: 41.9 ± 1.2 mN/m
323 K
  surface tension liquid-gas: 41.5 ± 1.2 mN/m
328 K
  surface tension liquid-gas: 41.1 ± 1.2 mN/m
333 K
  surface tension liquid-gas: 40.8 ± 1.2 mN/m
338 K
  surface tension liquid-gas: 40.4 ± 1.2 mN/m
343 K
  surface tension liquid-gas: 40.1 ± 1.2 mN/m
348 K
  surface tension liquid-gas: 39.7 ± 1.2 mN/m
353 K
  surface tension liquid-gas: 39.4 ± 1.2 mN/m
358 K
  surface tension liquid-gas: 39 ± 1.2 mN/m
363 K
  surface tension liquid-gas: 38.6 ± 1.1 mN/m
368 K
  surface tension liquid-gas: 38.3 ± 1.1 mN/m
373 K
  surface tension liquid-gas: 37.9 ± 1.1 mN/m
378 K
  surface tension liquid-gas: 37.6 ± 1.1 mN/m
383 K
  surface tension liquid-gas: 37.2 ± 1.1 mN/m
388 K
  surface tension liquid-gas: 36.8 ± 1.1 mN/m
393 K
  surface tension liquid-gas: 36.5 ± 1.1 mN/m

## CCCCCCn1cc[n+](C)c1.F[B-](F)(F)F [1-hexyl-3-methylimidazolium tetrafluoroborate]
298 K
  surface tension liquid-gas: 39.2 ± 1.2 mN/m
303 K
  surface tension liquid-gas: 38.9 ± 1.2 mN/m
308 K
  surface tension liquid-gas: 38.7 ± 1.1 mN/m
313 K
  surface tension liquid-gas: 38.4 ± 1.1 mN/m
318 K
  surface tension liquid-gas: 38.1 ± 1.1 mN/m
323 K
  surface tension liquid-gas: 37.9 ± 1.1 mN/m
328 K
  surface tension liquid-gas: 37.7 ± 1.1 mN/m
333 K
  surface tension liquid-gas: 37.5 ± 1.1 mN/m
338 K
  surface tension liquid-gas: 37.2 ± 1.1 mN/m
343 K
  surface tension liquid-gas: 36.9 ± 1.1 mN/m
348 K
  surface tension liquid-gas: 36.6 ± 1.1 mN/m
353 K
  surface tension liquid-gas: 36.4 ± 1.1 mN/m
358 K
  surface tension liquid-gas: 36.2 ± 1.1 mN/m
363 K
  surface tension liquid-gas: 35.8 ± 1.1 mN/m
368 K
  surface tension liquid-gas: 35.6 ± 1.1 mN/m
373 K
  surface tension liquid-gas: 35.4 ± 1.1 mN/m
378 K
  surface tension liquid-gas: 35.1 ± 1.1 mN/m
383 K
  surface tension liquid-gas: 34.9 ± 1.1 mN/m
388 K
  surface tension liquid-gas: 34.6 ± 1.1 mN/m
393 K
  surface tension liquid-gas: 34.3 ± 1.1 mN/m

## CCCCCCCC[n+]1ccn(C)c1.[Cl-] [1-methyl-3-octylimidazolium chloride]
298 K
  surface tension liquid-gas: 31.9 ± 1 mN/m
303 K
  surface tension liquid-gas: 31.7 ± 1 mN/m
308 K
  surface tension liquid-gas: 31.5 ± 1 mN/m
313 K
  surface tension liquid-gas: 31.2 ± 1 mN/m
318 K
  surface tension liquid-gas: 30.9 ± 1 mN/m
323 K
  surface tension liquid-gas: 30.6 ± 1 mN/m
328 K
  surface tension liquid-gas: 30.3 ± 1 mN/m
333 K
  surface tension liquid-gas: 30 ± 1 mN/m
338 K
  surface tension liquid-gas: 29.7 ± 1 mN/m
343 K
  surface tension liquid-gas: 29.5 ± 1 mN/m
348 K
  surface tension liquid-gas: 29.2 ± 1 mN/m
353 K
  surface tension liquid-gas: 28.9 ± 0.9 mN/m
358 K
  surface tension liquid-gas: 28.7 ± 0.9 mN/m
363 K
  surface tension liquid-gas: 28.4 ± 0.9 mN/m
368 K
  surface tension liquid-gas: 28.2 ± 0.9 mN/m
373 K
  surface tension liquid-gas: 27.9 ± 0.9 mN/m
378 K
  surface tension liquid-gas: 27.6 ± 0.9 mN/m
383 K
  surface tension liquid-gas: 27.4 ± 0.9 mN/m
388 K
  surface tension liquid-gas: 27 ± 0.9 mN/m
393 K
  surface tension liquid-gas: 26.7 ± 0.9 mN/m

## CCCCCCCC[n+]1ccn(C)c1.F[B-](F)(F)F [1-methyl-3-octylimidazolium tetrafluoroborate]
298 K
  surface tension liquid-gas: 30.7 ± 1 mN/m
303 K
  surface tension liquid-gas: 30.4 ± 1 mN/m
308 K
  surface tension liquid-gas: 30.1 ± 1 mN/m
313 K
  surface tension liquid-gas: 29.9 ± 1 mN/m
318 K
  surface tension liquid-gas: 29.6 ± 1 mN/m
323 K
  surface tension liquid-gas: 29.4 ± 1 mN/m
328 K
  surface tension liquid-gas: 29.2 ± 1 mN/m
333 K
  surface tension liquid-gas: 28.9 ± 0.9 mN/m
338 K
  surface tension liquid-gas: 28.7 ± 0.9 mN/m
343 K
  surface tension liquid-gas: 28.4 ± 0.9 mN/m
348 K
  surface tension liquid-gas: 28.2 ± 0.9 mN/m
353 K
  surface tension liquid-gas: 27.9 ± 0.9 mN/m
358 K
  surface tension liquid-gas: 27.7 ± 0.9 mN/m
363 K
  surface tension liquid-gas: 27.4 ± 0.9 mN/m
368 K
  surface tension liquid-gas: 27.2 ± 0.9 mN/m
373 K
  surface tension liquid-gas: 27 ± 0.9 mN/m
378 K
  surface tension liquid-gas: 26.7 ± 0.9 mN/m
383 K
  surface tension liquid-gas: 26.5 ± 0.9 mN/m
388 K
  surface tension liquid-gas: 26.3 ± 0.9 mN/m
393 K
  surface tension liquid-gas: 26 ± 0.9 mN/m
